Test results reported in PMC9897758, “Computational prediction and in vitro analysis of the potential ligand binding site within the extracellular ATP receptor, P2K2” (Plant Signaling & Behavior, 2023).
Positions count from the first letter of the chain named.

What was measured:
Assay in all cases: radioligand binding, gel filtration separation of bound and free ATP, saturation fit
[1] = biological target: T1, P2K2 extracellular lectin domain (LecRK-I.5), GST-tagged (Arabidopsis thaliana, UniProt Q9M1G4, H99A)
T1 construct: gene LECRK15; extracellular lectin domain (ectodomain), GST fusion, purified from E. coli BL21-AI
T1 sequence (Q9M1G4 23-286 H99A limits assumed): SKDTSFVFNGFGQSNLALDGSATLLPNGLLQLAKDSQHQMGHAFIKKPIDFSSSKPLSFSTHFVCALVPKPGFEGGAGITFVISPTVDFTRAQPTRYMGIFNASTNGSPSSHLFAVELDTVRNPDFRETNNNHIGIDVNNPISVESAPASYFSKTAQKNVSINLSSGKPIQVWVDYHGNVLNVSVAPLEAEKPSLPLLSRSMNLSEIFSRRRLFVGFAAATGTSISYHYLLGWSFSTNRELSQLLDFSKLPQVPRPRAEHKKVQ

[2] = biological target: T2, P2K2 extracellular lectin domain (LecRK-I.5), GST-tagged (Arabidopsis thaliana, UniProt Q9M1G4, S246A)
T2 construct: gene LECRK15; extracellular lectin domain (ectodomain), GST fusion, purified from E. coli BL21-AI
T2 sequence (Q9M1G4 23-286 S246A limits assumed): T1 sequence (Q9M1G4 23-286 H99A limits assumed) with A77H, S224A

[3] = biological target: T3, P2K2 extracellular lectin domain (LecRK-I.5), GST-tagged (Arabidopsis thaliana, UniProt Q9M1G4)
T3 construct: gene LECRK15; extracellular lectin domain (ectodomain), GST fusion, purified from E. coli BL21-AI
T3 sequence (Q9M1G4 23-286 limits assumed): T1 sequence (Q9M1G4 23-286 H99A limits assumed) with A77H

[4] = biological target: T4, P2K2 extracellular lectin domain (LecRK-I.5), GST-tagged (Arabidopsis thaliana, UniProt Q9M1G4, R144A)
T4 construct: gene LECRK15; extracellular lectin domain (ectodomain), GST fusion, purified from E. coli BL21-AI
T4 sequence (Q9M1G4 23-286 R144A limits assumed): T1 sequence (Q9M1G4 23-286 H99A limits assumed) with A77H, R122A

[5] = biological target: T5, P2K2 extracellular lectin domain (LecRK-I.5), GST-tagged (Arabidopsis thaliana, UniProt Q9M1G4, T245A)
T5 construct: gene LECRK15; extracellular lectin domain (ectodomain), GST fusion, purified from E. coli BL21-AI
T5 sequence (Q9M1G4 23-286 T245A limits assumed): T1 sequence (Q9M1G4 23-286 H99A limits assumed) with A77H, T223A

Kd [1]: > 1000 nM
Kd [2]: 109 ± 29.7 nM
Kd [3]: 41.6 ± 13.8 nM
Kd [4]: 104 ± 25 nM
Kd [5]: 41.7 ± 14.1 nM
Structure (SMILES): Nc1ncnc2c1ncn2[C@@H]1O[C@H](COP(=O)(O)OP(=O)(O)OP(=O)(O)O)[C@@H](O)[C@H]1O [ATP]
